Consider two compounds from patent publication US10517952B2, “Nucleophile-triggered degradable materials and methods of making and using the same” (GEORGIA TECH RESEARCH CORPORATION, priority 2014, dated 2019).

SMILES strings stand for the structures.

Type in all cases: physicochemical
A short description of data set [1]: Equilibrium swelling, gel fraction and Mc (Flory-Rehner) of PEG-OND hydrogels. As to the method: The swelling of the PEG-OND hydrogels in deionized water was measured at 4° C. to prevent significant fragmentation during the experiment. […] An independent experiment measuring soluble fraction thiol content yielded results complementing those obtained gravimetrically (Table S3, and related discussion below). With the knowledge that small molecules can readily permeate swollen PEG-OND hydrogels (see below), detecting and modifying residual thiols in gels prepared from divalent linkers 7a and 8 by swelling in the presence of a fluorogenic OND derivative was attempted (FIG. 15, and related discussion below).
200 μL gels were prepared in pH 7.4 100 mM phosphate buffered saline containing 7% DMSO with 3.5 wt % 4-PEG-SH and the corresponding bis-, tris-, and tetra-ONDs to provide a 1:1 thiol to electrophile ratio, and allowed to cure for 20 minutes at room temperature. The mass of the gels after curing was recorded (Meq) before suspending in 5.5 mL of water. The hydrogels were stored at 4° C. during swelling to prevent significant degradation of the network during the experiment. The increase in mass of the gels was monitored periodically by decanting and blotting the gel gently with a kimwipe to remove excess water before weighing. After 24 hours swelling, when swelling had stabilized, the mass of the gel was recorded (Meq). The equilibrium mass swelling ratio was then determined using the following relationship:
After weighing equilibrium-swelled gels to determine equilibrium mass swelling ratio, the gels were freeze-dried and the residual mass was weighed (Mres). It is expected that buffer salts present in the sample when it was formed were removed by the multiple changes of swelling solvent (pure water). The mass of the remaining residue was compared to the input mass (Min) of 4-PEG-SH macromer and OND-based linker. The ratio of the residual mass and the input mass provides the fraction of material by mass incorporated into the hydrogel network (gel fraction), as shown in the following equation: […]
The apparent molecular weight between elastically-productive crosslinks (Mc) was determined from equilibrium swelling data, collected as described in section VII.1 and applying a modified form of the Flory-Rehner equation for networks formed under dilute conditions:
[formula] where Mn is the number average molecular weight for the polymeric macromer (10,000 g/mol), v is the specific volume of the polymer ([…] for PEG) V1 is the molar volume of solvent used for swelling ([…] for water), χ is the polymer-interaction parameter (0.43 for PEG-H2O and assumed constant for the described experiments). V2, and V2, are the volume fraction of polymer in the equilibrium swollen gel and the relaxed gel after curing, respectively, and are calculated as follows:
[formula] where qw is the weight swelling ratio after equilibrium swelling, qF is the weight swelling ratio after curing, ρp is the density of the polymer (1.12 g/cm^3 for PEG), ρwater=ρcure solvent is the density of swelling solvent and solvent during gel formation (1.00 g/cm^3 for water). The weight swelling ratios qw and qF are determined from data gathered in equilibrium swelling experiments using the following relationships:
[formula] where ms is the mass of the gel after equilibrium swelling, mc is the mass of the gel after curing, and md is the mass of the dried gel, or input mass of polymer and crosslinkers.
Using the formulae above, masses of hydrogel samples recorded after equilibrium swelling, curing, and drying were applied to estimate the apparent molecular weight between crosslinks, which are summarized in Table 1 of the main text. The experimentally observed Mc values for gels formed using divalent OND linkers was lower than theoretical ideal value Mc,ideal. This can be explained by the fact that the Mc,ideal values calculated for these gels (entries 1-5 of Table S1) are greater than the entanglement molecular weight for polyethylene glycol (˜4,400 g/mol). […]

The nature of data set [2]: Calculation of hydrogel mesh size from equilibrium swelling data. The settings on record: equilibrium-swollen gels. The method, then:
Using the calculated molecular weight between crosslinks, Mc, and the method previously described by Canal and Peppas, the hydrogel mesh size was calculated. First, the root-mean-square end-to-end distance of the polymer chains in the network, (r0^2)^1/2, was calculated as follows: (r0^2)^1/2=lCn^1/2n^1/2 (Equation S10) where l is the average bond length in the polymer (0.146 nm for PEG) and Cn is the characteristic ratio of the polymer (4.0 for PEG). The average number of bonds between crosslinks, n is calculated using the following equation:
[formula] where Mc is the average molecular weight between crosslinks, calculated as described in the previous section, and Mr is the molecular weight of the repeating unit for the PEG macromer (44 g/mol). Finally, the mesh size, ξ, is calculated using the following relationship: ξ=v2,s^−1/3(r0^2)^1/2 (Equation S12) where v2, is the partial volume of polymer in the equilibrium swollen hydrogel, and is calculated using the experimentally determined equilibrium weight swelling ratios.

The nature of data set [3]: Erosion of swollen hydrogels (BODIPY erosion probe, time-lapse photography). The settings on record: 37° C., erosion probe. The source says: Degradation behavior of PEG-OND hydrogels under swelling conditions was investigated by labeling 3% of the 4-PEG-SH thiols with a BODIPY fluorophore via maleimide coupling before gelation. Gels prepared from this material are expected to have slightly lower crosslink densities and to degrade sooner when compared to gels formed without the erosion probe (FIG. 19). However, the probe-labeled macromer allowed convenient monitoring and comparison of erosion behavior under conditions relevant for biological applications. An increase in absorbance (504 nm) of the swelling buffer was observed as pieces containing the labeled PEG-thiol components were detached from the gel by rDA fragmentation (FIG. 2). […] Using combinations of linkers, it was possible to produce hydrogels with release profiles tuned between those of gels prepared from a single linker (FIG. 2C).
The 3.76 wt % solution of BODIPY-labeled 4-PEG-SH prepared above was used to form hydrogels using a method identical to unlabeled gels. Briefly, BODIPY-labeled 4-PEG-SH was combined with DMSO stocks of multivalent ONDs at equimolar concentration of thiol and electrophile. […] The absorbance of the supernatant at 504 nm was measured immediately to obtain a baseline measurement (t=0 hours), and the samples were placed into a 37° C. incubator. The absorbance of the swelling supernatant was monitored periodically by removal of 1 mL of buffer into a cuvette and measuring absorbance of the sample at 504 nm. […] This process was repeated for each sample until gel degradation was complete and the absorbance at 504 nm stabilized (100% dye released). In order to estimate the fraction of dye released from the non-degradable gel formed with bi s-EONB 8, a mock endpoint sample consisting of BODIPY-labeled 4-PEG-SH diluted to 3.5 wt % was prepared, and the absorbance at 504 nm was measured. […] The absorbance values collected over the course of the experiment were divided by the absorbance value measured after gel disintegration to obtain fractional dye release versus time. […]
The time at which the glass bead reached the bottom of the tube was recorded. […]

A short description of data set [4]: Gelation of 4-PEG-SH with OND linkers, gelation time by inversion test. The method, then: PEG-OND hydrogels were prepared by mixing tetravalent thiol-terminated PEG (4-PEG-SH, Mw˜2,500 Da for each arm) at 3.5 weight percent and multivalent OND linkers at equimolar concentration of thiol and electrophile in phosphate buffer containing 7% DMSO by volume (FIG. 42). The reactions were mixed briefly and the gel was allowed to cure at temperature or 37° C. Gelation time was recorded as the point at which the sample no longer flowed upon inversion of the reaction vessel.
Trial gelations were performed by premixing a solution of linker 7a with four-armed thiol-terminated poly(ethylene glycol) (4-PEG-SH. Mn=10,000) in neutral water containing 17% DMSO by volume. The overall concentration of PEG macromer was varied from 0.4 wt % to 8.3 wt % while maintaining an equimolar ratio of thiol to electrophile. Under these conditions, no gels formed on standing at room temperature for five minutes.
Based on empirical observations made in these trials, subsequent gels were prepared at room temperature from 3.5 wt % 4-PEG-SH solutions in phosphate buffers containing 7% DMSO at equimolar concentrations of thiol and OND electrophile. Mixtures were mixed briefly with a vortex mixer, and the reaction vial was periodically tilted or inverted. Gelation time was recorded when the sample no longer flowed and was self-supporting. […] Gelation time at 37° C. was determined by pre-warming 4-PEG-SH macromer and OND stock solutions in a 37° C. water bath. Gel components were combined and mixed briefly by pipetting, and the sample was held in the water bath. Gelation time was determined by the inversion test, as described above.
The labeled protein solutions prepared as described in the previous section were diluted three-fold with pH 7.4 100 mM phosphate buffer and used to dissolve the 4-PEG-SH macromer at 3.76 wt %. This solution was used in an identical manner as pure 4-PEG-SH solution for the purpose of forming PEG-OND hydrogels (FIG. 45). All samples formed self-supporting hydrogels within 1 min after mixing, as determined by the inversion test.

Data set [5] is described as follows: Oscillatory rheology of PEG-OND hydrogels. As to the method:
Oscillatory rheology was used to assess the viscoelastic properties of selected PEG-OND hydrogels. […] The truncated cone was then brought in contact with the bis-EONB/4-PEG-SH mixture before setting of the gel by positioning the tool at the measuring position. The sample was inspected for spillovers and trimmed as required. A preliminary preshearing step consisting of 30 seconds at 0.1% strain and ω=0.01 rad/s was performed to ensure good contact with the gel sample. The elastic (storage) and viscous (loss) moduli, G′ and G″, respectively, were then measured as a function of time for a constant strain of 1% and an angular frequency of 1 rad/sec. The ability to store energy is described by G′, while the amount of energy dissipated is related with G″. It was observed that the sample experienced a rapid transformation from an initial state in which G′ was not much larger than G″ to a state in which G′ was clearly predominant, as shown in FIG. 5; this is consistent with gelation. The observed transformation happened in the first few minutes after preparation, even when the hydrogel continued to rigidify for up to 2-3 hours.
The linear regime of this sample was determined by performing an oscillatory strain sweep at 37° C. The frequency sweep shown in the main text was thus performed in the linear region.
[…] In both experiments, G′>>G″.

Take `COC(=O)C1=C(C(=O)OC)C2(CNC(=O)CCOCC(COCCC(=O)NCC34C=CC(O3)C(C(=O)OC)=C4C(=O)OC)(COCCC(=O)NCC34C=CC(O3)C(C(=O)OC)=C4C(=O)OC)COCCC(=O)NCC34C=CC(O3)C(C(=O)OC)=C4C(=O)OC)C=CC1O2` (centres unmarked) [Linker 12, Tetramethyl 1,1′-(8,8-bis((3-(((2,3-bis(methoxycarbonyl)-7-oxabicyclo[2.2.1]hepta-2,5-dien-1-yl)methyl)amino)-3-oxopropoxy)methyl)-3,13-dioxo-6,10-dioxa-2,14-diazapentadecane-1,15-diyl)bis(7-oxabicyclo[2.2.1]hepta-2,5-diene-2,3-dicarboxylate)]: in data set [1] (calculated with the Flory-Rehner equation from swelling results), the “Mc (apparent molecular weight between elastic crosslinks)” value is listed as 3740 ± 95 g/mol. Moreover, in data set [1] (mass of dry residue post-swelling/input mass of OND and 4-PEG-SH), the “Gel Fraction” value is given as 0.96 ± 0.05. Moreover, the “Equilibrium Swelling Ratio” value in data set [1] (mass post-swelling/mass pre-swelling, deionized water, 4° C., 24 hours, n = 3 gels) is recorded as 1.44 ± 0.08. Further, in data set [2], the Calculated mesh size was 13.3 ± 0.9 nm. Also, the “Gel stability under swelling conditions compared with gels from divalent ONDs” value in data set [3] is “more stable gels”.
Compound `COC(=O)C1=C(C(=O)OC)C2(CNC(=O)CCCC(=O)NCC34C=CC(C)(O3)C(C(=O)OC)=C4C(=O)OC)C=CC1(C)O2` [Linker 7c, Tetramethyl 4,4′-((glutaroylbis(azanediyl))bis(methylene))bis(1-methyl-7-oxabicy-clo[2.2.1]hepta-2,5-diene-2,3-dicarboxylate)] showed a Gelation time in data set [4] (buffer pH 8.0, room temperature) of at most 1.5 min. In addition, the Gel formation entry in data set [4] (pH 6.5-7.4) is given as “formed only viscous solutions”; in data set [4] (pH 7.4), “did not form self-supporting gels”. For the same compound, the Gel stability entry in data set [5] (gel formed at pH 8.0, 4° C.) is given as “fairly stable”. Moreover, in data set [5] (gel formed at pH 8.0, room temperature), the “Time to revert to the liquid state (crossover of G′ and G″)” value was at most 30 min. The “Storage modulus G′ versus loss modulus G″” value in data set [5] (pH 8.0, 4° C., strain and frequency sweeps) is recorded as “G′>>G″”.
